Source: PMC9962735, “Synthesis and Cytotoxic Activity of the Derivatives of N-(Purin-6-yl)aminopolymethylene Carboxylic Acids and Related Compounds” (Molecules, 2023)

Experiments:
[1] = tested on: MDA-MB-231 human breast adenocarcinoma; experiment: MTT cytotoxicity assay, MDA-MB-231; format: cell-based; settings: Homo sapiens; for viability at 100 µM: MDA-MB-231, 1 × 10^–4 M, mean ± SD (n = 3), read-out: Cell viability; for CC50: MDA-MB-231, 72 h incubation, MTT, n = 3
Source text: (§1) The cytotoxicity of the test compounds was studied using the MTT assay against a number of cell lines: CT-26 murine colon carcinoma, 4T1 murine mammary carcinoma, MDA-MB-231 human breast adenocarcinoma, COLO201 human colorectal adenocarcinoma, HepG2 human hepatocellular carcinoma, A549 human non-small-cell lung carcinoma, SK-BR-3 human breast adenocarcinoma, SNU-1 human gastric carcinoma, Jurkat human acute T-lymphoblastic leukemia, and WI-38 human lung fibroblasts (normal cells). Doxorubicin (Dox) was used as a reference drug. Cells were incubated with test compounds for 72 h.
(§2) Cells were seeded in flat-bottomed 96-well plates at 10,000 cells per well (for A549, SNU-1, WI-38, CT-26, MDA-MB-231, 4T1, and HepG2 cells) or 20,000 cells per well (for SK-BR-3, Jurkat, and COLO201 cells) and cultivated in complete culture mediums (for composition of each medium, see the Supplementary Materials, Table S1) in a CO2 incubator at 37 °C. At the first stage of this study, the test compounds dissolved in DMSO were added to the wells with cells at final concentrations from 1 × 10^–4 to 1 × 10^–10 mol/L (A549, SK-BR-3, SNU-1, Jurkat, and WI-38) or 1 × 10^–3 to 1 × 10^–8 mol/L (CT-26, MDA-MB-231, 4T1, COLO201, and HepG2); DMSO concentration in the wells was finally 1%. A complete cultural medium and DMSO were added to the control wells at the same concentration as in the experimental wells; 0.1% Triton X-100 solution (10 µL) was added to the corresponding wells as a non-specific positive control. After adding the test compounds, the cells were incubated for 72 h in an atmosphere containing 5% CO2. After that, the nutrient medium was removed from each well (in the case of SK-BR-3, Jurkat, and COLO201, plates were pre-centrifuged at 1500 rpm for 6 min). A solution of the commercial anticancer agent Doxorubicin (Dox, Sigma-Aldrich, St. Louis, MO, USA) in DMSO was used as a reference drug. Then, 150 µL of a complete medium with the MTT reagent (PanEco, Moscow, Russia) at a concentration of 0.5 mg/mL was added and incubated for 2 h. Formazan crystals were dissolved in DMSO (200 µL) and the absorbance in the wells was measured at 540 nm and a reference wavelength of 650 nm (Sunrise, Tecan, Groding, Austria). Experiments were performed in three parallel runs. Cell viability after incubation in the presence of test compounds was calculated in relation to cell viability in the control wells according to the Formula (1):Cell viability (%) = (Aexp/Ac) × 100,(1) where Aexp is the optical density of solutions in the wells containing test compounds; Ac is the optical density of solutions in control wells without test compounds. For detailed information on cell viability of various cell lines, see the Supplementary Materials, Figures S21–S26.
(§3) At the second stage of this study, in order to more accurately calculate the CC50 (the half maximal inhibitory concentration), the cytotoxic effect of test compounds was evaluated at concentrations close to CC50 found at the first stage. The study of the cytotoxic activity of each substance towards the cells of each line was carried out in triplicate; the mean value was used to calculate CC50. The CC50 values were determined by non-linear regression analysis using Graph-Pad Prism7.

[2] = MTT cytotoxicity assay, MDA-MB-231; format: cell-based, human; settings: human; CC50 of WI-38 divided by CC50 of MDA-MB-231; read-out: SCI (selective cytotoxicity index)
Source text: as §1, §2, §3

[3] = tested on: Jurkat human acute T-lymphoblastic leukemia; experiment: MTT cytotoxicity assay, Jurkat; format: cell-based; settings: Homo sapiens, Jurkat; for CC50: 72 h, 72 h incubation, MTT; for viability at 100 µM: 1 × 10^–4 M, mean ± SD (n = 3), read-out: Cell viability
Source text: as §1, §2, §3

[4] = MTT cytotoxicity assay, Jurkat; format: cell-based, human; settings: human, read-out: SCI (selective cytotoxicity index)
Source text: as §1, §2, §3

[5] = tested on: A549 human non-small-cell lung carcinoma; experiment: MTT cytotoxicity assay, A549; format: cell-based; settings: Homo sapiens; for CC50: A549, 72 h, A549, 72 h incubation, MTT; for viability at 100 µM: A549, 1 × 10^–4 M, mean ± SD (n = 3)
Source text: as §1, §2, §3

[6] = MTT cytotoxicity assay, A549; format: cell-based, human; settings: human, read-out: SCI (selective cytotoxicity index)
Source text: as §1, §2, §3

[7] = tested on: SK-BR-3 human breast adenocarcinoma; experiment: MTT cytotoxicity assay, SK-BR-3; format: cell-based; settings: Homo sapiens; for CC50: SK-BR-3, 72 h, SK-BR-3, 72 h incubation, MTT; for viability at 100 µM: SK-BR-3, 1 × 10^–4 M, mean ± SD (n = 3), read-out: Cell viability
Source text: as §1, §2, §3

[8] = MTT cytotoxicity assay, SK-BR-3; format: cell-based, human; settings: human, read-out: SCI (selective cytotoxicity index)
Source text: as §1, §2, §3

[9] = MTT cytotoxicity assay, CT-26; format: cell-based, murine; settings: mouse (CT-26) and human (WI-38); CC50 of WI-38 divided by CC50 of CT-26; read-out: SCI (selective cytotoxicity index)
Source text: as §1, §2, §3

[10] = tested on: CT-26 murine colon carcinoma; experiment: MTT cytotoxicity assay, CT-26; format: cell-based; settings: Mus musculus, CT26; for viability at 100 µM: CT-26, 1 × 10^–4 M, mean ± SD (n = 3), read-out: Cell viability; for CC50: CT-26, 72 h incubation, MTT, n = 3
Source text: as §1, §2, §3

[11] = tested on: 4T1 murine mammary carcinoma; experiment: MTT cytotoxicity assay, 4T1; format: cell-based; settings: Mus musculus; for viability at 100 µM: 4T1, 1 × 10^–4 M, mean ± SD (n = 3), read-out: Cell viability; for CC50: 4T1, 72 h incubation, MTT, n = 3
Source text: as §1, §2, §3

[12] = MTT cytotoxicity assay, 4T1; format: cell-based, murine; settings: mouse (4T1) and human (WI-38); CC50 of WI-38 divided by CC50 of 4T1; read-out: SCI (selective cytotoxicity index)
Source text: as §1, §2, §3

[13] = MTT cytotoxicity assay, WI-38 normal cells; format: cell-based; settings: human, WI-38 lung fibroblasts (normal cells); for CC50 at 72 h: WI-38, 72 h incubation, MTT; for viability at 72 h: WI-38, 1 × 10^–4 M, mean ± SD (n = 3), read-out: Cell viability
Source text: as §1, §2, §3

[14] = tested on: SNU-1 human gastric carcinoma; experiment: MTT cytotoxicity assay, SNU-1; format: cell-based; settings: Homo sapiens; for CC50: SNU1, 72 h, SNU-1, 72 h incubation, MTT; for viability at 100 µM: SNU1, SNU-1, 1 × 10^–4 M, mean ± SD (n = 3), read-out: Cell viability
Source text: as §1, §2, §3

[15] = MTT cytotoxicity assay, SNU-1; format: cell-based, human; settings: human, read-out: SCI (selective cytotoxicity index)
Source text: as §1, §2, §3

[16] = CC50 of WI-38 divided by CC50 of Jurkat (Table 1)
[17] = CC50 of WI-38 divided by CC50 of A549 (Table 1)
[18] = CC50 of WI-38 divided by CC50 of SK-BR-3 (Table 1)
[19] = CC50 of WI-38 divided by CC50 of SNU-1 (Table 1)

| Compound | viability at 100 µM [1] [%] | CC50 [1] [µM] | selectivity ratio at 72 h [2] | CC50 ([3]; n = 3 (Table 1)) [µM] | viability at 100 µM [3] [%] | selectivity ratio at 72 h [4, 16] | CC50 ([5]; n = 3 (Table 1)) [µM] | viability at 100 µM [5] [%] | selectivity ratio at 72 h [6, 17] | CC50 ([7]; n = 3 (Table 1)) [µM] | viability at 100 µM [7] [%] | selectivity ratio at 72 h [8, 18] | selectivity ratio at 72 h [9] | viability at 100 µM [10] [%] | CC50 [10] [µM] | viability at 100 µM [11] [%] | CC50 [11] [µM] | selectivity ratio at 72 h [12] | CC50 at 72 h ([13]; n = 3) [µM] | viability at 72 h [13] [%] | also measured |
| --- | --- | --- | --- | --- | --- | --- | --- | --- | --- | --- | --- | --- | --- | --- | --- | --- | --- | --- | --- | --- | --- |
| CC1COc2c(ccc(F)c2F)N1C(=O)CCCCCCCNc1ncnc2[nH]cnc12 (stereo not shown) [Compound 1c] | 5 ± 5 | 44 | 1.2 | 8.5 | 8 ± 2 | 5.9 | 43 | 7 ± 1 | 1.2 | 75 | 8 | 0.67 | 2.6 | 2 ± 1 | 19 | 2 ± 2 | 23 | 2.2 | 50 | 21 ± 3 | CC50 ([14]; n = 3 (Table 1)): 7 µM; viability at 100 µM [14]: 6 ± 2%; selectivity ratio at 72 h [15, 19]: 7.1 |
| CC1COc2c(ccc(F)c2F)N1C(=O)CCCCCCCCCCNc1ncnc2[nH]cnc12 (stereo not shown) [Compound 1d] | 4 ± 2 | 44 | 0.48 | 8.5 | 10 ± 4 | 2.5 | 43 | 6 ± 1 | 0.49 | 75 | 8 ± 2 | 0.28 | 1.1 | 2 ± 1 | 19 | 2 ± 1 | 23 | 0.91 | 21 | 21 ± 7 | CC50 ([3]; n = 3 (Table 3)): 10 µM; selectivity ratio at 72 h ([4]; CC50 of WI-38 divided by CC50 of Jurkat (Table 3)): 2.1; CC50 ([5]; n = 3 (Table 3)): 21 µM; selectivity ratio at 72 h ([6]; CC50 of WI-38 divided by CC50 of A549 (Table 3)): 1; CC50 ([7]; n = 3 (Table 3)): 28 µM; selectivity ratio at 72 h ([8]; CC50 of WI-38 divided by CC50 of SK-BR-3 (Table 3)): 0.75; CC50 at 72 h ([13]; n = 3 (Table 3)): 21 µM; CC50 ([14]; n = 3 (Table 1)): 7 µM; CC50 ([14]; n = 3 (Table 3)): 2 µM; viability at 100 µM [14]: 5 ± 1%; selectivity ratio at 72 h [15, 19]: 3; selectivity ratio at 72 h ([15]; CC50 of WI-38 divided by CC50 of SNU-1 (Table 3)): 10 |
